From ChEMBL document CHEMBL1141727, “Isolation and cytotoxic evaluation of marine sponge-derived norterpene peroxides” (J Nat Prod, 1998)

Tests used:
Assay type in all cases: functional
P388 = assay: Growth inhibition of mouse P388 cells assessed as zone units at 50 ug/disk by disk diffusion agar colony formation assay
SR = assay: Growth inhibition of human SR cells
IGROV-1 = assay: Growth inhibition of human IGROV1 cells
HL-60(TB) = assay: Growth inhibition of human HL-60(TB) cells
HT-29 = assay: Growth inhibition of human HT-29 cells
OVCAR-3 = assay: Growth inhibition of human OVCAR-3 cells
SNB-75 = assay: Growth inhibition of human SNB75 cells
HOP-92 = assay: Growth inhibition of human HOP92 cells
Malme-3M = assay: Growth inhibition of human MALME-3M cells
[1] = Growth inhibition of human MCF7/ADR resistant cells; settings: NCI/ADR-RES
MDA-MB-435 = assay: Growth inhibition of human MDA-MB-435 cells
U-251 = assay: Growth inhibition of human U251 cells
PO3 = assay: Growth inhibition of mouse PO3 cells assessed as zone units at 50 ug/disk by disk diffusion agar colony formation assay
CCRF-CEM = assay: Growth inhibition of human CCRF-CEM cells
SK-MEL-28 = assay: Growth inhibition of human SK-MEL-28 cells
EKVX = assay: Growth inhibition of human EKVX cells
KM12 = assay: Growth inhibition of human KM12 cells
SF-268 = assay: Growth inhibition of human SF268 cells
[2] = Growth inhibition of human […] cells
MOLT-4 = assay: Growth inhibition of human MOLT4 cells
[3] = Growth inhibition of human Hs 578T cells
MDA-MB-231 = assay: Growth inhibition of human MDA-MB-231 cells
NCI-H522 = assay: Growth inhibition of human NCI-H522 cells
SK-MEL-2 = assay: Growth inhibition of human SK-MEL-2 cells
L1210 = assay: Growth inhibition of mouse L1210 cells assessed as zone units at 50 ug/disk by disk diffusion agar colony formation assay
HOP-62 = assay: Growth inhibition of human HOP62 cells
K562 = assay: Growth inhibition of human K562 cells
[4] = Growth inhibition of mouse M17/ADR cells assessed as zone units at 50 ug/disk by disk diffusion agar colony formation assay
OVCAR-8 = assay: Growth inhibition of human OVCAR8 cells
A498 = assay: Growth inhibition of human A498 cells
RXF 393 = assay: Growth inhibition of human […] cells
A549 = assay: Growth inhibition of human A549 cells
SF-539 = assay: Growth inhibition of human SF539 cells
MC-38 = assay: Growth inhibition of mouse C38 cells assessed as zone units at 50 ug/disk by disk diffusion agar colony formation assay
BT-549 = assay: Growth inhibition of human BT549 cells
OVCAR-5 = assay: Growth inhibition of human OVCAR5 cells
MDA-N = assay: Growth inhibition of human MDA-N cells
CAKI-1 = assay: Growth inhibition of human Caki1 cells
SK-OV-3 = assay: Growth inhibition of human SKOV3 cells
UACC-62 = assay: Growth inhibition of human UACC62 cells
PC-3 = assay: Growth inhibition of human PC3 cells
UO-31 = assay: Growth inhibition of human UO31 cells
NCI-H322M = assay: Growth inhibition of human NCI-H322M cells
SN12C = assay: Growth inhibition of human SN12C cells
T47D = assay: Growth inhibition of human T47D cells
ACHN = assay: Growth inhibition of human ACHN cells
SW-620 = assay: Growth inhibition of human SW620 cells
NCI-H460 = assay: Growth inhibition of human NCI-H460 cells
M14 = assay: Growth inhibition of human M14 cells
786-0 = assay: Growth inhibition of human 786-0 cells
UACC-257 = assay: Growth inhibition of human UACC257 cells
SF-295 = assay: Growth inhibition of human SF295 cells
HCT-15 = assay: Growth inhibition of human HCT15 cells
COLO 205 = assay: Growth inhibition of human COLO205 cells
NCI-H226 = assay: Growth inhibition of human NCI-H226 cells
OVCAR-4 = assay: Growth inhibition of human OVCAR4 cells
MCF7 = assay: Growth inhibition of human MCF7 cells
HCT-116 = assay: Growth inhibition of human HCT116 cells
SK-MEL-5 = assay: Growth inhibition of human SK-MEL-5 cells
CX-1 = assay: Growth inhibition of human CX-1 cells assessed as zone units at 50 ug/disk by disk diffusion agar colony formation assay
NCI-H23 = assay: Growth inhibition of human NCI-H23 cells
HCC 2998 = assay: Growth inhibition of human HCC2998 cells
DU-145 = assay: Growth inhibition of human DU145 cells

SMILES: CC1=C(CC/C(C)=C/CC[C@@]2(C)CC[C@@H]([C@H](C)C(=O)O)OO2)C(C)(C)CCC1 [EPIMUQUBILIN A]
- Activity (P388): 50 Zone units
- GI50 (SR): > 100 µM
- GI50 (IGROV-1): 43.6 µM
- GI50 (HL-60(TB)): 47.8 µM
- GI50 (HT-29): > 100 µM
- GI50 (OVCAR-3): > 100 µM
- GI50 (SNB-75): > 100 µM
- GI50 (HOP-92): > 100 µM
- GI50 (Malme-3M): > 100 µM
- GI50 [1]: > 100 µM
- GI50 (MDA-MB-435): > 100 µM
- GI50 (U-251): > 100 µM
- Activity (PO3): 0 Zone units
- GI50 (CCRF-CEM): 61.7 µM
- GI50 (SK-MEL-28): > 100 µM
- GI50 (EKVX): > 100 µM
- GI50 (KM12): > 100 µM
- GI50 (SF-268): > 100 µM
- GI50 [2]: > 100 µM
- GI50 (MOLT-4): 42.6 µM
- GI50 [3]: > 100 µM
- GI50 (MDA-MB-231): > 100 µM
- GI50 (NCI-H522): 13.8 µM
- GI50 (SK-MEL-2): > 100 µM
- Activity (L1210): 50 Zone units
- GI50 (HOP-62): > 100 µM
- GI50 (K562): > 100 µM
- Activity [4]: 70 Zone units
- GI50 (OVCAR-8): > 100 µM
- GI50 (A498): > 100 µM

SMILES: C=C1CCC[C@H]2[C@](C)(CC[C@]3(C)CC[C@H]([C@@H](C)C(=O)O)OO3)[C@@H](C)CC[C@]12C [SIGMOSCEPTRELLIN A]
- Activity (P388): 230 Zone units
- GI50 (RXF 393): 1220 nM
- GI50 (A549): 1450 nM
- GI50 (SF-539): 1610 nM
- GI50 (SR): 1.13 µM
- GI50 (IGROV-1): 0.12 µM
- GI50 (HL-60(TB)): 0.14 µM
- GI50 (HT-29): 1.57 µM
- GI50 (OVCAR-3): 1.85 µM
- GI50 (SNB-75): 1.08 µM
- Activity (MC-38): 180 Zone units
- GI50 (BT-549): 1810 nM
- GI50 (OVCAR-5): 1740 nM
- GI50 (MDA-N): 1830 nM
- GI50 (CAKI-1): 1760 nM
- GI50 (SK-OV-3): 1570 nM
- GI50 (HOP-92): 0.29 µM
- GI50 (UACC-62): 2320 nM
- GI50 (PC-3): 1690 nM
- GI50 (Malme-3M): 1.2 µM
- GI50 (MDA-MB-435): 1.98 µM
- GI50 (UO-31): 1220 nM
- GI50 (NCI-H322M): 1910 nM
- GI50 (SN12C): 1780 nM
- GI50 (U-251): 1.73 µM
- GI50 (T47D): 2000 nM
- GI50 (ACHN): 1380 nM
- GI50 (SW-620): 1570 nM
- GI50 (CCRF-CEM): 0.2 µM
- GI50 (NCI-H460): 1590 nM
- GI50 (SK-MEL-28): 3.31 µM
- GI50 (M14): 3.29 µM
- GI50 (786-0): 610 nM
- GI50 (EKVX): 1.17 µM
- GI50 (UACC-257): 3.68 µM
- GI50 (KM12): 0.94 µM
- GI50 (SF-295): 1460 nM
- GI50 (HCT-15): 1890 nM
- GI50 (COLO 205): 2180 nM
- GI50 [2]: 1.71 µM
- GI50 (NCI-H226): 110 nM
- GI50 (MOLT-4): 0.98 µM
- GI50 [3]: 1.08 µM
- GI50 (OVCAR-4): 1890 nM
- GI50 (MCF7): 1780 nM
- GI50 (HCT-116): 1800 nM
- GI50 (MDA-MB-231): 3.71 µM
- GI50 (NCI-H522): 0.12 µM
- GI50 (SK-MEL-5): 2680 nM
- GI50 (SK-MEL-2): 2.17 µM
- Activity (L1210): 230 Zone units
- GI50 (HOP-62): 1.05 µM
- Activity (CX-1): 220 Zone units
- GI50 (NCI-H23): 2020 nM
- GI50 (HCC 2998): 1550 nM
- Activity [4]: 290 Zone units
- GI50 (OVCAR-8): 1.57 µM
- GI50 (A498): 1.93 µM

SMILES: C=C1CCC[C@H]2[C@](C)(CCC(C)=O)[C@@H](C)CC[C@]12C
- Activity (P388): 0 Zone units
- GI50 (RXF 393): > 15000 nM
- GI50 (A549): > 15000 nM
- GI50 (SF-539): > 15000 nM
- GI50 (SR): > 15 µM
- GI50 (IGROV-1): > 15 µM
- GI50 (HL-60(TB)): > 15 µM
- GI50 (HT-29): > 15 µM
- GI50 (OVCAR-3): > 15 µM
- GI50 (SNB-75): 3.02 µM
- GI50 (BT-549): > 15000 nM
- GI50 (OVCAR-5): > 15000 nM
- GI50 (MDA-N): > 15000 nM
- GI50 (DU-145): > 15 µM
- GI50 (CAKI-1): > 15000 nM
- GI50 (SK-OV-3): > 15000 nM
- GI50 (HOP-92): > 15 µM
- GI50 (UACC-62): > 15000 nM
- GI50 (Malme-3M): > 15 µM
- GI50 [1]: > 15 µM
- GI50 (MDA-MB-435): > 15 µM
- GI50 (UO-31): > 15000 nM
- GI50 (NCI-H322M): > 15000 nM
- GI50 (SN12C): > 15000 nM
- GI50 (U-251): > 15 µM
- GI50 (T47D): > 15000 nM
- Activity (PO3): 0 Zone units
- GI50 (ACHN): > 15000 nM
- GI50 (SW-620): > 15000 nM
- GI50 (CCRF-CEM): > 15 µM
- GI50 (NCI-H460): > 15000 nM
- GI50 (SK-MEL-28): > 15 µM
- GI50 (M14): > 15 µM
- GI50 (786-0): > 15000 nM
- GI50 (EKVX): > 15 µM
- GI50 (UACC-257): > 15 µM
- GI50 (KM12): > 15 µM
- GI50 (SF-295): > 15000 nM
- GI50 (HCT-15): > 15000 nM
- GI50 (COLO 205): > 15000 nM
- GI50 [2]: > 15 µM
- GI50 (NCI-H226): > 15000 nM
- GI50 (MOLT-4): > 15 µM
- GI50 [3]: > 15 µM
- GI50 (OVCAR-4): > 15000 nM
- GI50 (MCF7): > 15000 nM
- GI50 (HCT-116): > 15000 nM
- GI50 (MDA-MB-231): > 15 µM
- GI50 (NCI-H522): > 15 µM
- GI50 (SK-MEL-5): > 15000 nM
- GI50 (SK-MEL-2): > 15 µM
- Activity (L1210): 0 Zone units
- GI50 (HOP-62): > 15 µM
- Activity (CX-1): 100 Zone units
- GI50 (NCI-H23): > 15000 nM
- GI50 (HCC 2998): > 15000 nM
- Activity [4]: 0 Zone units
- GI50 (OVCAR-8): > 15 µM
- GI50 (A498): > 15 µM
